Earlier results, collected in patent US7247427B1, “Leptin assay” (Yeda Research and Development Co., Ltd., priority 1999, dated 2007).

Test system: cultured adipocytes
Details: no Angiopoietin-2 expressed in the absence of leptin

leptin: the product of the obese gene, expressed in adipocytes; regulates food intake and energy metabolism through its receptor OB-R
expression of the angiopoietin-2 gene: specifically induces the expression of the angiopoietin-2 gene
